Test results as given in patent publication US4247706A, “Dibenzothiepin derivatives and a process for producing the same” (Nippon Chemiphar Co., Ltd., priority 1978, dated 1981).

What was measured:
[1] = system: writhing syndromes (acetic acid); assay: Analgesic effect: acetic acid-induced writhing syndromes; assay type: in vivo, dd Male mice; details: oral, mouse, 0.6% acetic acid writhing within 20 minutes
Experimental: dd Male mice each weighing 18 to 22 g, one group consisting of 10 mice, were given by an intraperitoneal injection of 0.6% acetic acid in a dosage of 0.1 ml/10 g/body weight. The number of writhing syndromes occurring within 20 minutes after the injection was observed. These animals were given orally test compounds suspended in a 0.2% carboxymethylcellulose solution 30 minutes before the injection of acetic acid. The inhibitory percentage of each of the test compounds was calculated in comparison with a control in which a 0.2% carboxymethylcellulose solution only was given. Aspirin was used as an active placebo.

[2] = system: edema in the hind paws (carrageenan); assay: Antiinflammatory effect: carrageenan-induced edema of the hind paws; assay type: in vivo, Male Wister rats; details: oral, rat; for Inhibition (%) (after 3 hours): 1% carrageenan edema
Experimental: Male Wister rats each weighing about 100 g, one group consisting of 5 to 7 rats, were orally given test compounds, and edema was then induced in the hind paws by a subcutaneous injection of 0.1 ml of a 1% carrageenan saline solution one hour after the administration of the test compounds. With a predetermined lapse of time, the volumes of the hind paws were measured by a volume differential meter. Indomethacin was used as an active placebo.

[3] = LD50 by the Lichfield-Wilcoxon method; details: rat, in vivo, rats
Description: This fact confirms the excellent effects of the present compounds.

| SMILES | Analgesic activity (ratio to Aspirin) [1] | Antiinflammatory activity (ratio to Indomethacin) [2] | Inhibition (%) (after 3 hours) ([2]; 2 mg/kg) | Inhibition (%) (after 3 hours) ([2]; 4 mg/kg) | LD50 [3] [mg/kg] |
| --- | --- | --- | --- | --- | --- |
| O=C(O)Cc1ccc2c(c1)Sc1ccccc1C(=O)C2 [Comparative compound B] | 1 | 0.01 |  |  |  |
| CC(C(N)=O)c1ccc2c(c1)CC(=O)c1ccccc1S2 (centres unmarked) [Compound 1, 2-(10,11-Dihydro-10-oxodibenzo[b,f]thiepin-2-yl)-propionamide] |  |  | 52.5 |  |  |
| COc1ccc2c(c1)c(CC(=O)O)c(C)n2C(=O)c1ccc(Cl)cc1 [Indomethacin] |  |  | 35.9 | 51.9 |  |
| CC(C(=O)O)c1ccc2c(c1)CC(=O)c1ccccc1S2 (centres unmarked) [Compound 2, 2-(10,11-Dihydro-10-oxodibenzo[b,f]thiepin-2-yl)-propionic acid] | 20 | 2 | 55.8 |  | 232 |
| O=C(O)Cc1ccc2c(c1)CC(=O)c1ccccc1S2 [Comparative compound A] | 1 | 0.01 |  |  |  |
